{"source": "patent US10670605B2", "about": "“Cysteine reactive probes and uses thereof” (The Scripps Research Institute, priority 2015, dated 2020)", "assay_in_all_cases": "Competitive isoTOP-ABPP, cell lysates", "format_in_all_cases": "binding", "key": {"[1]": {"target": "T1, ACAT1 C413 (P24752) (Homo sapiens, UniProt P24752)", "T1 sequence (P24752 34-427)": "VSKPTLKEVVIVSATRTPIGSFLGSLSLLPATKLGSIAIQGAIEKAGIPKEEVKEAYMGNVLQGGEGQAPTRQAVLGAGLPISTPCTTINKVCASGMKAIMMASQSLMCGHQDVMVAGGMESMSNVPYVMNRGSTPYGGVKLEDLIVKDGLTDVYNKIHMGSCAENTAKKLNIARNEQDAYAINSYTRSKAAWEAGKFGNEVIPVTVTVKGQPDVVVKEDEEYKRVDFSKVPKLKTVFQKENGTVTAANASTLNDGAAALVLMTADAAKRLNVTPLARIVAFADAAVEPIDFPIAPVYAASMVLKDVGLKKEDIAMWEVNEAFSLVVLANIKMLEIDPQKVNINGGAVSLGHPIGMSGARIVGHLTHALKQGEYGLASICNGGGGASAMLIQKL", "settings": "for R value (DMSO/fragment) / isoTOP-ABPP ratio P24752_C413: 500 μM"}, "[2]": {"target": "T2, UBE2S C118 (Q16763) (Homo sapiens, UniProt Q16763)", "T2 sequence (Q16763 1-222)": "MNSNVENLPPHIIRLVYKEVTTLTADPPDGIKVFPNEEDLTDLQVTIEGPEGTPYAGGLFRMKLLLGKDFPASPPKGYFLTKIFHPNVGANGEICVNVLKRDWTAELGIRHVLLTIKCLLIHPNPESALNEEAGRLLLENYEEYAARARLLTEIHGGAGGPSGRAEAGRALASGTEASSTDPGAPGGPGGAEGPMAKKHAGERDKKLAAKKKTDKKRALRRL", "settings": "for R value (DMSO/fragment): 500 μM; for isoTOP-ABPP reactivity profile ratio, Q16763_C118 / isoTOP-ABPP reactivity ratio, Q16763_C118: 500 μm"}, "[3]": {"target": "T3, ACAT1 C126 (P24752) (Homo sapiens, UniProt P24752)", "T3 sequence (P24752 34-427)": "T1 sequence (P24752 34-427)"}, "[4]": {"target": "T4, ACAT1 C119 (P24752) (Homo sapiens, UniProt P24752)", "T4 sequence (P24752 34-427)": "T1 sequence (P24752 34-427)", "settings": "for R value (DMSO/fragment) / isoTOP-ABPP ratio P24752_C119: 500 μM; for isoTOP-ABPP reactivity profile ratio, P24752_C119 / isoTOP-ABPP reactivity ratio, P24752_C119: 500 μm"}, "[5]": {"target": "T5, ACAT1 C196 (P24752) (Homo sapiens, UniProt P24752)", "T5 sequence (P24752 34-427)": "T1 sequence (P24752 34-427)", "settings": "for R value (DMSO/fragment) / isoTOP-ABPP ratio, P24752_C196: 500 μM"}, "[6]": {"target": "T6, USP22 C171 (Q9UPT9) (Homo sapiens, UniProt Q9UPT9)", "T6 sequence (Q9UPT9 1-525)": "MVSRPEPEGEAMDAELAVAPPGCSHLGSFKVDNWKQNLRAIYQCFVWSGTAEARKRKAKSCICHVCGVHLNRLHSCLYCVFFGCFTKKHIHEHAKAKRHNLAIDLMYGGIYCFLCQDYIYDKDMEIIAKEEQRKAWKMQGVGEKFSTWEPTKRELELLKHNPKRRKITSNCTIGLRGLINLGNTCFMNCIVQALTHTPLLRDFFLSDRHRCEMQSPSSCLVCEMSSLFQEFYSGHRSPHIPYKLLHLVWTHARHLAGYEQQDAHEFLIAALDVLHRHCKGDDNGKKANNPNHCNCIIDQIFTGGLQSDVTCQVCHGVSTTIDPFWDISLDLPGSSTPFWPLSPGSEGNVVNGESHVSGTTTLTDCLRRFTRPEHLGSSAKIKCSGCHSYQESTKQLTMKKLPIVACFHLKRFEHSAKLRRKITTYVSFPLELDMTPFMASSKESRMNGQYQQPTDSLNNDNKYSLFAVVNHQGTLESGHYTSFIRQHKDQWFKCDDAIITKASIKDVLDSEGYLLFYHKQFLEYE", "settings": "500 μM, invitro, ramos"}}}
{"smiles": "O=C(CCl)Nc1cc(C(F)(F)F)cc(C(F)(F)F)c1", "note": "[compound 3]", "values": [{"measurement": "R value (DMSO/fragment)", "setting": "[1]; in vitro, MDA-MB-231", "value": 15.3}, {"measurement": "R value (DMSO/fragment)", "setting": "[1]; invitro, ramos", "value": 20.0}, {"measurement": "R value (DMSO/fragment)", "setting": "[2]; in vitro, MDA-MB-231", "value": 1.3}, {"measurement": "R value (DMSO/fragment)", "setting": "[2]; invitro, ramos", "value": 1.5}, {"measurement": "R value (DMSO/fragment)", "setting": "[3]; 500 μM, in vitro, MDA-MB-231", "value": 2.6}, {"measurement": "R value (DMSO/fragment)", "setting": "[3]; 500 μM, invitro, ramos", "value": 2.4}, {"measurement": "R value (DMSO/fragment)", "setting": "[4]; in vitro, MDA-MB-231", "value": 2.1}, {"measurement": "R value (DMSO/fragment)", "setting": "[4]; invitro, ramos", "value": 5.3}, {"measurement": "R value (DMSO/fragment)", "setting": "[5]; in vitro, MDA-MB-231", "value": 1.7}, {"measurement": "R value (DMSO/fragment)", "setting": "[5]; invitro, ramos", "value": 3.1}]}
{"smiles": "C=CC(=O)N1CCC(Cc2ccccc2)CC1", "note": "[compound 53]", "values": [{"measurement": "isoTOP-ABPP reactivity profile ratio, P24752_C413", "setting": "[1]; 500 μm, in-vitro_ramos_231", "value": 1.0}, {"measurement": "isoTOP-ABPP reactivity profile ratio, Q16763_C118", "setting": "[2]; in-vitro_ramos", "value": 0.8}, {"measurement": "isoTOP-ABPP reactivity profile ratio, Q16763_C118", "setting": "[2]; in-vitro_ramos_231", "value": 1.0}, {"measurement": "isoTOP-ABPP reactivity profile ratio, P24752_C119", "setting": "[4]; in-vitro_ramos", "value": 0.7}, {"measurement": "isoTOP-ABPP reactivity profile ratio, P24752_C119", "setting": "[4]; in-vitro_ramos_231", "value": 0.9}, {"measurement": "isoTOP-ABPP reactivity profile ratio, P24752_C196", "setting": "[5]; 500 μm, in-vitro_ramos", "value": 0.9}, {"measurement": "isoTOP-ABPP reactivity profile ratio, P24752_C196", "setting": "[5]; 500 μm, in-vitro_ramos_231", "value": 1.2}]}
{"smiles": "C=CC(=O)Nc1cc(C)c(Br)cc1C", "note": "[compound 40]", "values": [{"measurement": "isoTOP-ABPP reactivity ratio, P24752_C413", "setting": "[1]; 500 μm, in-vitro_ramos_231", "value": 0.9}, {"measurement": "isoTOP-ABPP reactivity ratio, Q16763_C118", "setting": "[2]; in-vitro_ramos", "value": 0.8}, {"measurement": "isoTOP-ABPP reactivity ratio, Q16763_C118", "setting": "[2]; in-vitro_ramos_231", "value": 0.9}, {"measurement": "isoTOP-ABPP reactivity ratio, P24752_C126", "setting": "[3]; 500 μm, in-vitro_ramos_231", "value": 0.9}, {"measurement": "isoTOP-ABPP reactivity ratio, P24752_C119", "setting": "[4]; in-vitro_ramos", "value": 0.9}, {"measurement": "isoTOP-ABPP reactivity ratio, P24752_C119", "setting": "[4]; in-vitro_ramos_231", "value": 0.8}, {"measurement": "isoTOP-ABPP reactivity ratio, P24752_C196", "setting": "[5]; 500 μm, in-vitro_ramos_231", "value": 0.8}]}
{"smiles": "O=C(CCl)NC1C(O)OC(CO)C(O)C1O", "note": "(mixture of isomers) [compound 44]", "values": [{"measurement": "isoTOP-ABPP reactivity profile ratio, P24752_C413", "setting": "[1]; 500 μm, in-vitro_ramos_231", "value": 0.8}, {"measurement": "isoTOP-ABPP reactivity profile ratio, Q16763_C118", "setting": "[2]; in-vitro_ramos_231", "value": 0.8}, {"measurement": "isoTOP-ABPP reactivity profile ratio, P24752_C126", "setting": "[3]; 500 μm, in-vitro_ramos_231", "value": 0.8}, {"measurement": "isoTOP-ABPP reactivity profile ratio, P24752_C119", "setting": "[4]; in-vitro_ramos_231", "value": 0.8}, {"measurement": "isoTOP-ABPP reactivity profile ratio, P24752_C196", "setting": "[5]; 500 μm, in-vitro_ramos_231", "value": 0.8}]}
{"smiles": "Cn1cc(S(=O)(=O)N2CCOCC2)cc1C(=O)NC(=O)CCl", "note": "[compound 11]", "values": [{"measurement": "isoTOP-ABPP ratio P24752_C413", "setting": "[1]; invitro, 231", "value": 1.9}, {"measurement": "isoTOP-ABPP ratio P24752_C413", "setting": "[1]; invitro, ramos", "value": 1.7}, {"measurement": "isoTOP-ABPP ratio, Q9UPT9_C171", "setting": "[6]", "value": 8.2}, {"measurement": "isoTOP-ABPP ratio, P24752_C126", "setting": "[3]; 500 μM, invitro, 231", "value": 1.5}, {"measurement": "isoTOP-ABPP ratio P24752_C119", "setting": "[4]; invitro, 231", "value": 1.2}, {"measurement": "isoTOP-ABPP ratio P24752_C119", "setting": "[4]; invitro, ramos", "value": 0.9}, {"measurement": "isoTOP-ABPP ratio, P24752_C196", "setting": "[5]; invitro, 231", "value": 1.5}, {"measurement": "isoTOP-ABPP ratio, P24752_C196", "setting": "[5]; invitro, ramos", "value": 1.3}]}
